This is an account of results in PMC5218480 (PLoS ONE, 2017).

In this assay the test system is MV-4-11 cells. The experiment in a line: Gene expression microarray analysis (Affymetrix PrimeView) and GSEA. In kind it is cell-based, human. Details: RFU PODN (11730768_x_at) / Fold change /veh PODN (11730768_x_at) / RFU LINC00158 (11744669_a_at) / Fold change /veh LINC00158 (11744669_a_at) / RFU DUSP10 (11751237_a_at) / Fold change /veh DUSP10 (11751237_a_at) / RFU ID3 (11757404_x_at) / Fold change /veh ID3 (11757404_x_at) / RFU PLEKHG5 (11737974_s_at) / Fold change /veh PLEKHG5 (11737974_s_at) / RFU LRRC4B (11730491_at) / Fold change /veh LRRC4B (11730491_at) / RFU GIMAP4 (11747438_a_at) / Fold change /veh GIMAP4 (11747438_a_at) / RFU KRT8 (11758183_x_at) / Fold change /veh KRT8 (11758183_x_at) / RFU CNN1 (11734310_a_at) / Fold change /veh CNN1 (11734310_a_at) / RFU VPS37D (11726825_at) / Fold change /veh VPS37D (11726825_at) / RFU C10orf10 (11716522_x_at) / Fold change /veh C10orf10 (11716522_x_at) / RFU KIR2DL2 /// KIR2DL4 /// KIR2DL5A /// KIR2DL5B /// KIR2DS1 /// KIR2DS2 /// KIR2DS3 /// KIR2DS4 /// KIR3DL3 /// KIR3DL3 /// KIR3DS1 (11738374_at) / Fold change /veh KIR2DL2 /// KIR2DL4 /// KIR2DL5A /// KIR2DL5B /// KIR2DS1 /// KIR2DS2 /// KIR2DS3 /// KIR2DS4 /// KIR3DL3 /// KIR3DL3 /// KIR3DS1 (11738374_at) / RFU C1QL1 (11718748_at) / Fold change /veh C1QL1 (11718748_at) / RFU TMPRSS4 (11747572_a_at) / Fold change /veh TMPRSS4 (11747572_a_at) / RFU HAMP (11756126_x_at) / Fold change /veh HAMP (11756126_x_at) / RFU RNFT2 (11725882_a_at) / Fold change /veh RNFT2 (11725882_a_at) / RFU NR4A2 (11747474_a_at) / Fold change /veh NR4A2 (11747474_a_at) / RFU ABCC12 (11746883_a_at) / Fold change /veh ABCC12 (11746883_a_at) / RFU TMEM136 (11760407_x_at) / Fold change /veh TMEM136 (11760407_x_at) / RFU CLDN22 /// WWC2 (11732394_at) / Fold change /veh CLDN22 /// WWC2 (11732394_at) / RFU HLA-DPB1 (11760878_x_at) / Fold change /veh HLA-DPB1 (11760878_x_at) / RFU SPINT1 (11716480_a_at) / Fold change /veh SPINT1 (11716480_a_at) / RFU GAP43 (11754022_s_at) / Fold change /veh GAP43 (11754022_s_at) / RFU A4GNT (11735810_at) / Fold change /veh A4GNT (11735810_at) / RFU PRB3 (11715151_x_at) / Fold change /veh PRB3 (11715151_x_at) / RFU TUBB4B (11761932_at) / Fold change /veh TUBB4B (11761932_at) / RFU CAPN14 (11732068_a_at) / Fold change /veh CAPN14 (11732068_a_at) / RFU TMCC2 (11721928_a_at) / Fold change /veh TMCC2 (11721928_a_at) / RFU IRGQ (11745062_a_at) / Fold change /veh IRGQ (11745062_a_at) / RFU FAM174B (11720279_a_at) / Fold change /veh FAM174B (11720279_a_at) / RFU TMPRSS4 (11748680_a_at) / Fold change /veh TMPRSS4 (11748680_a_at) / RFU FAM212B (11763350_a_at) / Fold change /veh FAM212B (11763350_a_at) / RFU PLEKHG5 (11743358_a_at) / Fold change /veh PLEKHG5 (11743358_a_at) / RFU ZSCAN30 (11745921_a_at) / Fold change /veh ZSCAN30 (11745921_a_at) / RFU CMKLR1 (11741424_a_at) / Fold change /veh CMKLR1 (11741424_a_at) / RFU LOC101060620 /// MAPK8IP1 (11723275_at) / Fold change /veh LOC101060620 /// MAPK8IP1 (11723275_at) / RFU SPTSSB (11747773_x_at) / Fold change /veh SPTSSB (11747773_x_at) / RFU PRSS12 (11739890_at) / Fold change /veh PRSS12 (11739890_at) / RFU BIN1 (11741810_x_at) / Fold change /veh BIN1 (11741810_x_at) / RFU WNT11 (11732464_a_at) / Fold change /veh WNT11 (11732464_a_at) / RFU C10orf10 (11716521_a_at) / Fold change /veh C10orf10 (11716521_a_at) / RFU C5orf56 (11738089_at) / Fold change /veh C5orf56 (11738089_at) / RFU CYB561 (11721691_x_at) / Fold change /veh CYB561 (11721691_x_at) / RFU ANKRD19P (11752326_a_at) / Fold change /veh ANKRD19P (11752326_a_at) / RFU OR2T12 /// OR2T33 /// OR2T8 (11738714_s_at) / Fold change /veh OR2T12 /// OR2T33 /// OR2T8 (11738714_s_at) / RFU VCAN (11748164_a_at) / Fold change /veh VCAN (11748164_a_at) / RFU JSRP1 (11732532_at) / Fold change /veh JSRP1 (11732532_at) / RFU KRTAP10-11 (11738290_x_at) / Fold change /veh KRTAP10-11 (11738290_x_at) / RFU MYO3A (11730013_a_at) / Fold change /veh MYO3A (11730013_a_at) / RFU EBF3 (11725865_a_at) / Fold change /veh EBF3 (11725865_a_at) / RFU CAMK2N1 (11719241_x_at) / Fold change /veh CAMK2N1 (11719241_x_at) / RFU C5orf56 (11738088_a_at) / Fold change /veh C5orf56 (11738088_a_at) / RFU OLFML3 (11715873_a_at) / Fold change /veh OLFML3 (11715873_a_at) / RFU LOC100653217 /// NTM (11731650_a_at) / Fold change /veh LOC100653217 /// NTM (11731650_a_at) / RFU MAPK11 (11762145_a_at) / Fold change /veh MAPK11 (11762145_a_at) / RFU FIZ1 (11724087_x_at) / Fold change /veh FIZ1 (11724087_x_at) / RFU OASL (11726364_x_at) / Fold change /veh OASL (11726364_x_at) / RFU SOX15 (11748057_x_at) / Fold change /veh SOX15 (11748057_x_at) / RFU CD79A (11719716_a_at) / Fold change /veh CD79A (11719716_a_at) / RFU HIST1H1D (11736915_at) / Fold change /veh HIST1H1D (11736915_at) / RFU CASKIN2 (11723855_a_at) / Fold change /veh CASKIN2 (11723855_a_at) / RFU LOC730098 (11760151_x_at) / Fold change /veh LOC730098 (11760151_x_at) / RFU OR4N2 (11742367_at) / Fold change /veh OR4N2 (11742367_at) / RFU PRRT2 (11749266_a_at) / Fold change /veh PRRT2 (11749266_a_at) / RFU SNX32 (11753110_a_at) / Fold change /veh SNX32 (11753110_a_at) / RFU CDHR5 (11726645_a_at) / Fold change /veh CDHR5 (11726645_a_at) / RFU RCAN1 (11760418_a_at) / Fold change /veh RCAN1 (11760418_a_at) / RFU FAM167A (11723789_a_at) / Fold change /veh FAM167A (11723789_a_at) / RFU FAM26E (11764081_at) / Fold change /veh FAM26E (11764081_at) / RFU ISYNA1 (11749810_s_at) / Fold change /veh ISYNA1 (11749810_s_at) / RFU ACY1 (11761880_at) / Fold change /veh ACY1 (11761880_at) / RFU 11764098_at / Fold change /veh 11764098_at / RFU SAMD14 (11745864_x_at) / Fold change /veh SAMD14 (11745864_x_at) / RFU NPB (11741838_a_at) / Fold change /veh NPB (11741838_a_at) / RFU TMPRSS6 (11731388_a_at) / Fold change /veh TMPRSS6 (11731388_a_at) / RFU KRTAP10-2 (11738614_at) / Fold change /veh KRTAP10-2 (11738614_at) / RFU ARHGAP8 /// PRR5-ARHGAP8 (11727945_x_at) / Fold change /veh ARHGAP8 /// PRR5-ARHGAP8 (11727945_x_at) / RFU KRTAP5-7 /// NADSYN1 (11734609_at) / Fold change /veh KRTAP5-7 /// NADSYN1 (11734609_at) / RFU RASL12 (11751679_a_at) / Fold change /veh RASL12 (11751679_a_at) / RFU CDKN2B (11736163_a_at) / Fold change /veh CDKN2B (11736163_a_at) / RFU PRF1 (11729649_at) / Fold change /veh PRF1 (11729649_at) / RFU, ZNF638 /// ZNF638-IT1 / Fold change vs veh, ZNF638 /// ZNF638-IT1 / RFU, PANK3 / Fold change vs veh, PANK3 / RFU, SH3YL1 / Fold change vs veh, SH3YL1 / RFU, ZEB2 / Fold change vs veh, ZEB2 / RFU, NRIP1 / Fold change vs veh, NRIP1 / RFU, PTTG1IP / Fold change vs veh, PTTG1IP / RFU, CAPN2 / Fold change vs veh, CAPN2 / RFU, MED14 / Fold change vs veh, MED14 / RFU, SNORA58 / Fold change vs veh, SNORA58 / RFU, C1orf63 / Fold change vs veh, C1orf63 / RFU, LRRFIP1 / Fold change vs veh, LRRFIP1 / RFU, NDUFAF7 / Fold change vs veh, NDUFAF7 / RFU, SLC12A2 / Fold change vs veh, SLC12A2 / RFU, IBTK / Fold change vs veh, IBTK / RFU, ESF1 / Fold change vs veh, ESF1 / Fold change vs veh, TMEM50B / RFU, TAOK1 / Fold change vs veh, TAOK1 / RFU, ACBD3 / Fold change vs veh, ACBD3 / RFU, TMA16 / Fold change vs veh, TMA16 / RFU, RWDD3 / Fold change vs veh, RWDD3 / RFU, BCAT1 / Fold change vs veh, BCAT1 / RFU, EDEM3 / Fold change vs veh, EDEM3 / RFU, TMEM33 / Fold change vs veh, TMEM33 / RFU, WDR75 / Fold change vs veh, WDR75 / RFU, AHCTF1 / Fold change vs veh, AHCTF1 / RFU, TFRC / Fold change vs veh, TFRC / RFU, ZDHHC17 / Fold change vs veh, ZDHHC17 / RFU, NOM1 / Fold change vs veh, NOM1 / RFU, ARL8B / Fold change vs veh, ARL8B / RFU, ZBTB11 / Fold change vs veh, ZBTB11 / RFU, TAMM41 / Fold change vs veh, TAMM41 / RFU, KIAA1704 /// LOC100996395 / Fold change vs veh, KIAA1704 /// LOC100996395 / RFU, ING1 / Fold change vs veh, ING1 / RFU, TRMT61B / Fold change vs veh, TRMT61B / RFU, FUBP3 / Fold change vs veh, FUBP3 / RFU, TP53 / Fold change vs veh, TP53 / RFU, TNKS2 / Fold change vs veh, TNKS2 / RFU, ZFP14 / Fold change vs veh, ZFP14 / RFU, ACTR2 / Fold change vs veh, ACTR2 / RFU, PPP3R1 / Fold change vs veh, PPP3R1 / RFU, PIK3R1 / Fold change vs veh, PIK3R1 / RFU, HNRNPA1 / Fold change vs veh, HNRNPA1 / RFU, RNF170 / Fold change vs veh, RNF170 / RFU, ZNF28 / Fold change vs veh, ZNF28 / RFU, RNGTT / Fold change vs veh, RNGTT / RFU, OGT / Fold change vs veh, OGT / RFU, BRD1 / Fold change vs veh, BRD1 / RFU, MARS / Fold change vs veh, MARS / RFU, ZNF655 / Fold change vs veh, ZNF655 / RFU, FAHD1 / Fold change vs veh, FAHD1 / RFU, BDP1 / Fold change vs veh, BDP1 / RFU, LRRCC1 / Fold change vs veh, LRRCC1 / RFU, ARID1A / Fold change vs veh, ARID1A / RFU, ZNF146 / Fold change vs veh, ZNF146 / RFU, ZNF330 / Fold change vs veh, ZNF330 / RFU, GPN3 / Fold change vs veh, GPN3 / RFU, C9orf123 / Fold change vs veh, C9orf123 / RFU, N4BP2L2 / Fold change vs veh, N4BP2L2 / RFU, ARFIP1 / Fold change vs veh, ARFIP1 / RFU, FAM179B / Fold change vs veh, FAM179B / RFU, BCL10 / Fold change vs veh, BCL10 / RFU, UHRF1BP1L / Fold change vs veh, UHRF1BP1L / RFU, BET1 / Fold change vs veh, BET1 / RFU, CNOT2 / Fold change vs veh, CNOT2 / RFU, ZNF268 / Fold change vs veh, ZNF268 / Fold change vs veh, ZNF507 / RFU, DGCR2 / Fold change vs veh, DGCR2 / RFU, WDSUB1 / Fold change vs veh, WDSUB1 / Fold change vs veh, HSP90B1 /// MIR3652 / RFU, ADSS / Fold change vs veh, ADSS / RFU, GK / Fold change vs veh, GK / RFU, ZNF148 / Fold change vs veh, ZNF148 / RFU, TAF9 / Fold change vs veh, TAF9 / RFU, SLC1A5 / Fold change vs veh, SLC1A5 / RFU, SLMO2 / Fold change vs veh, SLMO2 / RFU, ABCC4 / Fold change vs veh, ABCC4 / RFU, LOC101060439 /// RAP1B / Fold change vs veh, LOC101060439 /// RAP1B / RFU, RFX7 / Fold change vs veh, RFX7 / RFU, GTPBP10 / Fold change vs veh, GTPBP10 / RFU, CNEP1R1 / Fold change vs veh, CNEP1R1 / RFU, BIVM-ERCC5 /// ERCC5 / Fold change vs veh, BIVM-ERCC5 /// ERCC5 / RFU, ILF3 / Fold change vs veh, ILF3 / RFU 11762660_at / Fold change /veh 11762660_at / RFU VCAN (11757783_s_at) / Fold change /veh VCAN (11757783_s_at) / RFU DDX43 (11728927_at) / Fold change /veh DDX43 (11728927_at) / RFU KRT8 (11758188_x_at) / Fold change /veh KRT8 (11758188_x_at) / RFU NKD1 (11759106_at) / Fold change /veh NKD1 (11759106_at) / RFU SRD5A1 (11742802_a_at) / Fold change /veh SRD5A1 (11742802_a_at) / RFU TPSAB1 /// TPSB2 (11721975_s_at) / Fold change /veh TPSAB1 /// TPSB2 (11721975_s_at) / RFU GSTM3 (11746129_a_at) / Fold change /veh GSTM3 (11746129_a_at) / RFU IL23R (11737362_x_at) / Fold change /veh IL23R (11737362_x_at) / RFU TMEM51 (11727254_a_at) / Fold change /veh TMEM51 (11727254_a_at) / RFU PIWIL2 (11732686_x_at) / Fold change /veh PIWIL2 (11732686_x_at) / RFU ORM1 (11744905_x_at) / Fold change /veh ORM1 (11744905_x_at) / RFU CCDC152 (11743942_at) / Fold change /veh CCDC152 (11743942_at) / RFU ECM1 (11717891_a_at) / Fold change /veh ECM1 (11717891_a_at) / RFU IL23R (11748794_a_at) / Fold change /veh IL23R (11748794_a_at) / RFU TNFAIP8L3 (11732012_x_at) / Fold change /veh TNFAIP8L3 (11732012_x_at) / RFU MBOAT4 (11741988_at) / Fold change /veh MBOAT4 (11741988_at) / RFU 11764193_at / Fold change /veh 11764193_at / RFU TMEM53 (11763286_at) / Fold change /veh TMEM53 (11763286_at) / RFU MAGEB2 (11727129_at) / Fold change /veh MAGEB2 (11727129_at) / RFU TMEM200A (11744735_a_at) / Fold change /veh TMEM200A (11744735_a_at) / RFU CCDC152 (11751479_a_at) / Fold change /veh CCDC152 (11751479_a_at) / RFU FAM211A (11726209_a_at) / Fold change /veh FAM211A (11726209_a_at) / RFU RGS16 (11746705_a_at) / Fold change /veh RGS16 (11746705_a_at) / RFU VCAN (11755009_s_at) / Fold change /veh VCAN (11755009_s_at) / RFU RHOB (11743442_s_at) / Fold change /veh RHOB (11743442_s_at) / RFU RGS16 (11720943_a_at) / Fold change /veh RGS16 (11720943_a_at) / RFU RGS16 (11720944_at) / Fold change /veh RGS16 (11720944_at) / RFU, VPS4B / Fold change vs veh, VPS4B / RFU, CREB1 / Fold change vs veh, CREB1 / RFU, DNAJC13 / Fold change vs veh, DNAJC13 / RFU, GNAQ / Fold change vs veh, GNAQ / RFU, CDK5R1 / Fold change vs veh, CDK5R1 / RFU, ZRANB3 / Fold change vs veh, ZRANB3 / RFU, CUL4A / Fold change vs veh, CUL4A / RFU, CCNY / Fold change vs veh, CCNY / RFU, UFL1 / Fold change vs veh, UFL1 / RFU, COG3 / Fold change vs veh, COG3 / RFU, DIAPH2 / Fold change vs veh, DIAPH2 / RFU, SKA2 / Fold change vs veh, SKA2 / RFU, AFF3 / Fold change vs veh, AFF3 / RFU, LMF1 / Fold change vs veh, LMF1 / RFU, IPO11 / Fold change vs veh, IPO11 / RFU, DFFB / Fold change vs veh, DFFB / RFU, FOXP1 / Fold change vs veh, FOXP1 / RFU, CARD8 / Fold change vs veh, CARD8 / RFU, STRN3 / Fold change vs veh, STRN3 / RFU, ADK / Fold change vs veh, ADK / RFU, RASSF2 / Fold change vs veh, RASSF2 / RFU, WIPF1 / Fold change vs veh, WIPF1 / RFU, LARP1B / Fold change vs veh, LARP1B / RFU, RASA1 / Fold change vs veh, RASA1 / RFU, RB1 / Fold change vs veh, RB1 / RFU, PPFIA1 / Fold change vs veh, PPFIA1 / RFU, MAT2A / Fold change vs veh, MAT2A / RFU, CCT5 / Fold change vs veh, CCT5 / RFU, WDR92 / Fold change vs veh, WDR92 / RFU, CUX1 / Fold change vs veh, CUX1 / RFU, TTC7A / Fold change vs veh, TTC7A / RFU, TMEM135 / Fold change vs veh, TMEM135 / RFU, DEPTOR / Fold change vs veh, DEPTOR / RFU, CPM / Fold change vs veh, CPM / RFU, DNAJB6 / Fold change vs veh, DNAJB6 / RFU, CACNA2D3 / Fold change vs veh, CACNA2D3 / RFU, DTX4 / Fold change vs veh, DTX4 / RFU, TFCP2 / Fold change vs veh, TFCP2 / RFU, GMCL1 /// GMCL1P1 / Fold change vs veh, GMCL1 /// GMCL1P1 / RFU, AEBP2 / Fold change vs veh, AEBP2 / RFU, SNHG1 /// SNORD22 /// SNORD25 /// SNORD26 /// SNORD27 /// SNORD28 /// SNORD29 /// SNORD31 / Fold change vs veh, SNHG1 /// SNORD22 /// SNORD25 /// SNORD26 /// SNORD27 /// SNORD28 /// SNORD29 /// SNORD31 / Fold change (Aza/veh), C12orf56 (ProbeSet 11735607_a_at) / Fold change (ACY-1035/veh), C12orf56 (ProbeSet 11735607_a_at) / Fold change (Aza/veh), FGFR1OP (ProbeSet 11751329_s_at) / Fold change (ACY-1035/veh), FGFR1OP (ProbeSet 11751329_s_at) / Fold change (Aza/veh), VPS36 (ProbeSet 11739960_a_at) / Fold change (ACY-1035/veh), VPS36 (ProbeSet 11739960_a_at) / RFU SYPL1 (11715823_x_at) / Fold change /veh SYPL1 (11715823_x_at) / RFU IGFBP7 (11715501_s_at) / Fold change /veh IGFBP7 (11715501_s_at) / RFU REEP3 (11722064_at) / Fold change /veh REEP3 (11722064_at) / RFU IGLL1 (11728026_x_at) / Fold change /veh IGLL1 (11728026_x_at): dose or concentration left out as unconfirmed. The following applies: ProbeSet 11724763_s_at; LIST D.

In the case of `Nc1ccc(-c2cccs2)cc1NC(=O)c1ccc2c(c1)cc(C1CC1)n2CCN1CCOCC1` [ACY-1035], the “RFU, DEPTOR” value is 104.61 RFU.
